Test results published in PubChem BioAssay (NCI).
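Cells were grown in 96-well plates and exposed to each compound for 48 hours at five concentrations; endpoints were interpolated linearly between bracketing concentrations, or set to the highest concentration if not reached. GI50: concentration for 50% inhibition of growth. The concentration for full growth arrest is given as TGI.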

Key:
Assay in all cases: inhibition of tumour cell growth, NCI panel, 48 h
PC-3 prostate = test system: PC-3 prostate
LOX IMVI melanoma = test system: LOX IMVI melanoma
SF-295 CNS = test system: SF-295 CNS
MDA-MB-435 = test system: MDA-MB-435
NCI-H460 lung = test system: NCI-H460 lung
COLO 205 colon = test system: COLO 205 colon
SF-539 CNS = test system: SF-539 CNS
T-47D breast = test system: T-47D breast
CCRF-CEM leukemia = test system: CCRF-CEM leukemia
EKVX NSCLC = test system: EKVX NSCLC
HOP-92 NSCLC = test system: HOP-92 NSCLC
SN12C renal = test system: SN12C renal
OVCAR-4 ovarian = test system: OVCAR-4 ovarian
HL-60(TB) leukemia = test system: HL-60(TB) leukemia
M14 melanoma = test system: M14 melanoma
SF-268 CNS = test system: SF-268 CNS
A549 NSCLC = test system: A549 NSCLC
UO-31 renal = test system: UO-31 renal
SK-MEL-2 melanoma = test system: SK-MEL-2 melanoma
U251 CNS = test system: U251 CNS
HCT-116 colon = test system: HCT-116 colon
SK-MEL-5 melanoma = test system: SK-MEL-5 melanoma
MDA-MB-231 breast = test system: MDA-MB-231 breast
HS 578T breast = test system: HS 578T breast
RXF 393 renal = test system: RXF 393 renal
HCC-2998 colon = test system: HCC-2998 colon
RPMI-8226 leukemia = test system: RPMI-8226 leukemia
786-0 renal = test system: 786-0 renal
IGROV1 ovarian = test system: IGROV1 ovarian
KM12 colon = test system: KM12 colon
UACC-62 melanoma = test system: UACC-62 melanoma
HT29 colon = test system: HT29 colon
MCF7 breast = test system: MCF7 breast
MALME-3M melanoma = test system: MALME-3M melanoma
DU-145 prostate = test system: DU-145 prostate
NCI/ADR-RES ovarian = test system: NCI/ADR-RES ovarian
SNB-19 CNS = test system: SNB-19 CNS
NCI-H23 lung = test system: NCI-H23 lung
NCI-H226 lung = test system: NCI-H226 lung
OVCAR-5 ovarian = test system: OVCAR-5 ovarian
SR leukemia = test system: SR leukemia
SK-MEL-28 melanoma = test system: SK-MEL-28 melanoma
HCT-15 colon = test system: HCT-15 colon
K-562 leukemia = test system: K-562 leukemia
ACHN renal = test system: ACHN renal
A498 renal = test system: A498 renal
SK-OV-3 ovarian = test system: SK-OV-3 ovarian
SW-620 colon = test system: SW-620 colon
OVCAR-3 ovarian = test system: OVCAR-3 ovarian
OVCAR-8 ovarian = test system: OVCAR-8 ovarian
SNB-75 CNS = test system: SNB-75 CNS
UACC-257 melanoma = test system: UACC-257 melanoma
NCI-H522 lung = test system: NCI-H522 lung
HOP-62 NSCLC = test system: HOP-62 NSCLC
MOLT-4 leukemia = test system: MOLT-4 leukemia
TK-10 renal = test system: TK-10 renal
BT-549 breast = test system: BT-549 breast

## O=C1C(=C(C(F)(F)Cl)C(F)(F)Cl)C2CCC1C2 (stereo not given)
PC-3 prostate
  TGI: 5.48 µM
LOX IMVI melanoma
  TGI: 2.89 µM
SF-295 CNS
  TGI: > 10 µM
MDA-MB-435
  TGI: 3.81 µM
NCI-H460 lung
  TGI: > 7.96 µM
COLO 205 colon
  TGI: 3.25 µM
SF-539 CNS
  TGI: > 6.2 µM
T-47D breast
  TGI: 4.58 µM
CCRF-CEM leukemia
  TGI: > 10 µM
EKVX NSCLC
  TGI: > 10 µM
HOP-92 NSCLC
  TGI: 6.42 µM
SN12C renal
  TGI: 3.61 µM
OVCAR-4 ovarian
  TGI: 8.31 µM
HL-60(TB) leukemia
  TGI: > 3.16 µM
M14 melanoma
  TGI: 2.38 µM
SF-268 CNS
  TGI: > 6.62 µM
A549 NSCLC
  TGI: > 10 µM
UO-31 renal
  TGI: > 6.47 µM
SK-MEL-2 melanoma
  TGI: 4.21 µM
U251 CNS
  TGI: > 10 µM
HCT-116 colon
  TGI: 3.61 µM
SK-MEL-5 melanoma
  TGI: 3.11 µM
MDA-MB-231 breast
  TGI: 3.07 µM
HS 578T breast
  TGI: > 10 µM
RXF 393 renal
  TGI: 3.07 µM
HCC-2998 colon
  TGI: > 10 µM
RPMI-8226 leukemia
  TGI: > 3.16 µM
786-0 renal
  TGI: 3.64 µM
IGROV1 ovarian
  TGI: 3.62 µM
KM12 colon
  TGI: > 8.65 µM
UACC-62 melanoma
  TGI: 4.4 µM
HT29 colon
  TGI: 5.57 µM
MCF7 breast
  TGI: > 6.52 µM
MALME-3M melanoma
  TGI: 3.2 µM
DU-145 prostate
  TGI: > 10 µM
NCI/ADR-RES ovarian
  TGI: 5.18 µM
SNB-19 CNS
  TGI: > 10 µM
NCI-H23 lung
  TGI: 4.63 µM
NCI-H226 lung
  TGI: > 9.06 µM
OVCAR-5 ovarian
  TGI: > 10 µM
SR leukemia
  TGI: > 3.34 µM
SK-MEL-28 melanoma
  TGI: 3.96 µM
HCT-15 colon
  TGI: 3.97 µM
K-562 leukemia
  TGI: > 10 µM
ACHN renal
  TGI: 3.32 µM
A498 renal
  TGI: > 10 µM
SK-OV-3 ovarian
  TGI: > 10 µM
SW-620 colon
  TGI: 3.98 µM
OVCAR-3 ovarian
  TGI: > 6.36 µM
OVCAR-8 ovarian
  TGI: 4.24 µM
SNB-75 CNS
  TGI: > 10 µM
UACC-257 melanoma
  TGI: 4.2 µM
NCI-H522 lung
  TGI: 0.56 µM
HOP-62 NSCLC
  TGI: > 10 µM
MOLT-4 leukemia
  TGI: > 3.53 µM
TK-10 renal
  TGI: 4.29 µM
BT-549 breast
  TGI: 4 µM

## CCCc1n(Cc2ccc3ccccc3c2)cc[n+]1Cc1ccc2ccccc2c1
PC-3 prostate
  GI50: 1.17 µM
  TGI: 3.49 µM
LOX IMVI melanoma
  GI50: 0.926 µM
  TGI: 2.19 µM
SF-295 CNS
  GI50: 1.44 µM
  TGI: 3.34 µM
MDA-MB-435
  GI50: 0.564 µM
  TGI: 2.06 µM
NCI-H460 lung
  GI50: 1.22 µM
  TGI: 3.01 µM
COLO 205 colon
  GI50: 0.458 µM
  TGI: 1.72 µM
SF-539 CNS
  GI50: 1.1 µM
  TGI: 2.85 µM
T-47D breast
  GI50: 0.377 µM
  TGI: 3.17 µM
CCRF-CEM leukemia
  GI50: 1.48 µM
  TGI: 4.93 µM
EKVX NSCLC
  GI50: 1.71 µM
  TGI: 11.4 µM
HOP-92 NSCLC
  GI50: 0.863 µM
  TGI: 2.66 µM
SN12C renal
  GI50: 1.07 µM
  TGI: 2.53 µM
OVCAR-4 ovarian
  GI50: 0.398 µM
  TGI: 1.61 µM
HL-60(TB) leukemia
  GI50: 0.321 µM
  TGI: 1.17 µM
M14 melanoma
  GI50: 1.1 µM
  TGI: 2.53 µM
SF-268 CNS
  GI50: 1.08 µM
  TGI: 2.52 µM
A549 NSCLC
  GI50: 2.67 µM
  TGI: 12.1 µM
UO-31 renal
  GI50: 2.56 µM
  TGI: 11.6 µM
U251 CNS
  GI50: 0.765 µM
  TGI: 2.11 µM
HCT-116 colon
  GI50: 0.971 µM
  TGI: 2.17 µM
SK-MEL-5 melanoma
  GI50: 0.485 µM
  TGI: 1.62 µM
MDA-MB-231 breast
  GI50: 1.06 µM
  TGI: 2.54 µM
HS 578T breast
  GI50: 1.75 µM
  TGI: 6.67 µM
RXF 393 renal
  GI50: 1.13 µM
  TGI: 2.49 µM
HCC-2998 colon
  GI50: 0.716 µM
  TGI: 2.07 µM
RPMI-8226 leukemia
  GI50: 0.399 µM
  TGI: 1.67 µM
786-0 renal
  GI50: 1.52 µM
  TGI: 2.91 µM
IGROV1 ovarian
  GI50: 0.779 µM
  TGI: 2.42 µM
KM12 colon
  GI50: 1.01 µM
  TGI: 2.38 µM
UACC-62 melanoma
  GI50: 0.647 µM
  TGI: 2.02 µM
HT29 colon
  GI50: 0.513 µM
  TGI: 1.89 µM
MCF7 breast
  GI50: 1.11 µM
  TGI: 2.77 µM
MALME-3M melanoma
  GI50: 0.876 µM
  TGI: 2.58 µM
DU-145 prostate
  GI50: 1.49 µM
  TGI: 7.25 µM
NCI/ADR-RES ovarian
  GI50: 17.1 µM
  TGI: 44.3 µM
SNB-19 CNS
  GI50: 0.869 µM
  TGI: 2.26 µM
NCI-H23 lung
  GI50: 0.521 µM
  TGI: 2.51 µM
NCI-H226 lung
  GI50: 1.31 µM
  TGI: 3.92 µM
OVCAR-5 ovarian
  GI50: 1.43 µM
  TGI: 3.32 µM
SR leukemia
  GI50: 0.597 µM
  TGI: 2.62 µM
SK-MEL-28 melanoma
  GI50: 1.06 µM
  TGI: 2.52 µM
HCT-15 colon
  GI50: 3.69 µM
  TGI: 16.1 µM
K-562 leukemia
  GI50: 0.414 µM
  TGI: 1.75 µM
ACHN renal
  GI50: 3.87 µM
  TGI: 14.2 µM
A498 renal
  GI50: 0.938 µM
  TGI: 3.78 µM
SK-OV-3 ovarian
  GI50: 1.74 µM
  TGI: 4.95 µM
SW-620 colon
  GI50: 1.34 µM
  TGI: 3.33 µM
SNB-75 CNS
  GI50: 0.514 µM
  TGI: 3.04 µM
UACC-257 melanoma
  GI50: 0.466 µM
  TGI: 1.76 µM
NCI-H522 lung
  GI50: 0.378 µM
  TGI: 1.69 µM
HOP-62 NSCLC
  GI50: 1.26 µM
  TGI: 2.8 µM
MOLT-4 leukemia
  GI50: 1.46 µM
  TGI: 4.07 µM
TK-10 renal
  GI50: 1.28 µM
  TGI: 2.7 µM
BT-549 breast
  GI50: 0.772 µM
  TGI: 2.16 µM
